{"source": "patent US11684607B2", "about": "“Secnidazole for use in the treatment of bacterial vaginosis” (priority 2014, dated 2023)", "system": "bacterial vaginosis", "assay": "Telephone diary questionnaire on vaginal discharge and odor (five point scale), mITT population", "format": "in vivo, human", "conditions": "for proportion of women reporting 3-5 for vaginal discharge / proportion of women reporting 3-5 for vaginal odor / proportion of women reporting 4-5 for vaginal discharge / proportion of women reporting 4-5 for vaginal odor: 2 g dose; for Discharge 1 point (Normal/Not an Issue): number of women / Discharge 1 point (Normal/Not an Issue): proportion of women / Discharge 2 points (Mildly Abnormal): number of women / Discharge 2 points (Mildly Abnormal): proportion of women / Discharge 3 points (Moderately Abnormal): number of women / Discharge 3 points (Moderately Abnormal): proportion of women / Discharge 4 points (Severely Abnormal): number of women / Discharge 4 points (Severely Abnormal): proportion of women / Discharge 5 points (Very Severely Abnormal): number of women / Discharge 5 points (Very Severely Abnormal): proportion of women / Odor 1 point (Normal/Not an Issue): number of women / Odor 1 point (Normal/Not an Issue): proportion of women / Odor 2 points (Mildly Abnormal): number of women / Odor 2 points (Mildly Abnormal): proportion of women / Odor 3 points (Moderately Abnormal): number of women / Odor 3 points (Moderately Abnormal): proportion of women / Odor 4 points (Severely Abnormal): number of women / Odor 4 points (Severely Abnormal): proportion of women / Odor 5 points (Very Severely Abnormal): number of women / Odor 5 points (Very Severely Abnormal): proportion of women: 2 g", "data": [{"smiles": "Cc1ncc([N+](=O)[O-])n1CC(C)O", "note": "(centres unmarked) [SYM-1219, 1-(2-hydroxypropyl)-2-methyl-5-nitromidazole]", "values": [{"measurement": "proportion of women reporting 3-5 for vaginal discharge", "setting": "day 1", "result": 59, "unit": "%"}, {"measurement": "proportion of women reporting 3-5 for vaginal odor", "setting": "day 1", "result": 66, "unit": "%"}, {"measurement": "proportion of women reporting 4-5 for vaginal discharge", "setting": "day 1", "result": 36, "unit": "%"}, {"measurement": "proportion of women reporting 4-5 for vaginal odor", "setting": "day 1", "result": 38, "unit": "%"}, {"measurement": "proportion of women reporting 3-5 for vaginal discharge", "setting": "day 3 (~48 hours)", "result": 30, "unit": "%"}, {"measurement": "proportion of women reporting 3-5 for vaginal odor", "setting": "day 3 (~48 hours)", "result": 20, "unit": "%"}, {"measurement": "proportion of women reporting 4-5 for vaginal discharge", "setting": "day 3 (~48 hours)", "result": 11, "unit": "%"}, {"measurement": "proportion of women reporting 4-5 for vaginal odor", "setting": "day 3 (~48 hours)", "result": 9, "unit": "%"}, {"measurement": "proportion of women reporting 3-5 for vaginal discharge", "setting": "day 7", "result": 14, "unit": "%"}, {"measurement": "proportion of women reporting 3-5 for vaginal odor", "setting": "day 7", "result": 9, "unit": "%"}, {"measurement": "proportion of women reporting 4-5 for vaginal discharge", "setting": "day 7", "result": 0, "unit": "%"}, {"measurement": "proportion of women reporting 4-5 for vaginal odor", "setting": "day 7", "result": 0, "unit": "%"}, {"measurement": "Discharge 1 point (Normal/Not an Issue): number of women", "setting": "Day 1", "result": 6}, {"measurement": "Discharge 1 point (Normal/Not an Issue): proportion of women", "setting": "Day 1", "result": 10, "unit": "%"}, {"measurement": "Discharge 2 points (Mildly Abnormal): number of women", "setting": "Day 1", "result": 18}, {"measurement": "Discharge 2 points (Mildly Abnormal): proportion of women", "setting": "Day 1", "result": 31, "unit": "%"}, {"measurement": "Discharge 3 points (Moderately Abnormal): number of women", "setting": "Day 1", "result": 13}, {"measurement": "Discharge 3 points (Moderately Abnormal): proportion of women", "setting": "Day 1", "result": 22, "unit": "%"}, {"measurement": "Discharge 4 points (Severely Abnormal): number of women", "setting": "Day 1", "result": 17}, {"measurement": "Discharge 4 points (Severely Abnormal): proportion of women", "setting": "Day 1", "result": 29, "unit": "%"}, {"measurement": "Discharge 5 points (Very Severely Abnormal): number of women", "setting": "Day 1", "result": 4}, {"measurement": "Discharge 5 points (Very Severely Abnormal): proportion of women", "setting": "Day 1", "result": 7, "unit": "%"}, {"measurement": "Odor 1 point (Normal/Not an Issue): number of women", "setting": "Day 1", "result": 8}, {"measurement": "Odor 1 point (Normal/Not an Issue): proportion of women", "setting": "Day 1", "result": 14, "unit": "%"}, {"measurement": "Odor 2 points (Mildly Abnormal): number of women", "setting": "Day 1", "result": 12}, {"measurement": "Odor 2 points (Mildly Abnormal): proportion of women", "setting": "Day 1", "result": 21, "unit": "%"}, {"measurement": "Odor 3 points (Moderately Abnormal): number of women", "setting": "Day 1", "result": 16}, {"measurement": "Odor 3 points (Moderately Abnormal): proportion of women", "setting": "Day 1", "result": 28, "unit": "%"}, {"measurement": "Odor 4 points (Severely Abnormal): number of women", "setting": "Day 1", "result": 17}, {"measurement": "Odor 4 points (Severely Abnormal): proportion of women", "setting": "Day 1", "result": 29, "unit": "%"}, {"measurement": "Odor 5 points (Very Severely Abnormal): number of women", "setting": "Day 1", "result": 5}, {"measurement": "Odor 5 points (Very Severely Abnormal): proportion of women", "setting": "Day 1", "result": 9, "unit": "%"}, {"measurement": "Discharge 1 point (Normal/Not an Issue): number of women", "setting": "Day 2", "result": 9}, {"measurement": "Discharge 1 point (Normal/Not an Issue): proportion of women", "setting": "Day 2", "result": 17, "unit": "%"}, {"measurement": "Discharge 2 points (Mildly Abnormal): number of women", "setting": "Day 2", "result": 20}, {"measurement": "Discharge 2 points (Mildly Abnormal): proportion of women", "setting": "Day 2", "result": 38, "unit": "%"}, {"measurement": "Discharge 3 points (Moderately Abnormal): number of women", "setting": "Day 2", "result": 15}, {"measurement": "Discharge 3 points (Moderately Abnormal): proportion of women", "setting": "Day 2", "result": 29, "unit": "%"}, {"measurement": "Discharge 4 points (Severely Abnormal): number of women", "setting": "Day 2", "result": 3}, {"measurement": "Discharge 4 points (Severely Abnormal): proportion of women", "setting": "Day 2", "result": 6, "unit": "%"}, {"measurement": "Discharge 5 points (Very Severely Abnormal): number of women", "setting": "Day 2", "result": 5}, {"measurement": "Discharge 5 points (Very Severely Abnormal): proportion of women", "setting": "Day 2", "result": 10, "unit": "%"}, {"measurement": "Odor 1 point (Normal/Not an Issue): number of women", "setting": "Day 2", "result": 10}, {"measurement": "Odor 1 point (Normal/Not an Issue): proportion of women", "setting": "Day 2", "result": 19, "unit": "%"}, {"measurement": "Odor 2 points (Mildly Abnormal): number of women", "setting": "Day 2", "result": 23}, {"measurement": "Odor 2 points (Mildly Abnormal): proportion of women", "setting": "Day 2", "result": 44, "unit": "%"}, {"measurement": "Odor 3 points (Moderately Abnormal): number of women", "setting": "Day 2", "result": 10}, {"measurement": "Odor 3 points (Moderately Abnormal): proportion of women", "setting": "Day 2", "result": 19, "unit": "%"}, {"measurement": "Odor 4 points (Severely Abnormal): number of women", "setting": "Day 2", "result": 8}, {"measurement": "Odor 4 points (Severely Abnormal): proportion of women", "setting": "Day 2", "result": 15, "unit": "%"}, {"measurement": "Odor 5 points (Very Severely Abnormal): number of women", "setting": "Day 2", "result": 1}, {"measurement": "Odor 5 points (Very Severely Abnormal): proportion of women", "setting": "Day 2", "result": 2, "unit": "%"}, {"measurement": "Discharge 1 point (Normal/Not an Issue): number of women", "setting": "Day 3", "result": 13}, {"measurement": "Discharge 1 point (Normal/Not an Issue): proportion of women", "setting": "Day 3", "result": 24, "unit": "%"}, {"measurement": "Discharge 2 points (Mildly Abnormal): number of women", "setting": "Day 3", "result": 25}, {"measurement": "Discharge 2 points (Mildly Abnormal): proportion of women", "setting": "Day 3", "result": 46, "unit": "%"}, {"measurement": "Discharge 3 points (Moderately Abnormal): number of women", "setting": "Day 3", "result": 10}, {"measurement": "Discharge 3 points (Moderately Abnormal): proportion of women", "setting": "Day 3", "result": 19, "unit": "%"}, {"measurement": "Discharge 4 points (Severely Abnormal): number of women", "setting": "Day 3", "result": 3}, {"measurement": "Discharge 4 points (Severely Abnormal): proportion of women", "setting": "Day 3", "result": 6, "unit": "%"}, {"measurement": "Discharge 5 points (Very Severely Abnormal): number of women", "setting": "Day 3", "result": 3}, {"measurement": "Discharge 5 points (Very Severely Abnormal): proportion of women", "setting": "Day 3", "result": 6, "unit": "%"}, {"measurement": "Odor 1 point (Normal/Not an Issue): number of women", "setting": "Day 3", "result": 20}, {"measurement": "Odor 1 point (Normal/Not an Issue): proportion of women", "setting": "Day 3", "result": 37, "unit": "%"}, {"measurement": "Odor 2 points (Mildly Abnormal): number of women", "setting": "Day 3", "result": 23}, {"measurement": "Odor 2 points (Mildly Abnormal): proportion of women", "setting": "Day 3", "result": 43, "unit": "%"}, {"measurement": "Odor 3 points (Moderately Abnormal): number of women", "setting": "Day 3", "result": 6}, {"measurement": "Odor 3 points (Moderately Abnormal): proportion of women", "setting": "Day 3", "result": 11, "unit": "%"}, {"measurement": "Odor 4 points (Severely Abnormal): number of women", "setting": "Day 3", "result": 4}, {"measurement": "Odor 4 points (Severely Abnormal): proportion of women", "setting": "Day 3", "result": 7, "unit": "%"}, {"measurement": "Odor 5 points (Very Severely Abnormal): number of women", "setting": "Day 3", "result": 1}, {"measurement": "Odor 5 points (Very Severely Abnormal): proportion of women", "setting": "Day 3", "result": 2, "unit": "%"}, {"measurement": "Discharge 1 point (Normal/Not an Issue): number of women", "setting": "Day 4", "result": 19}, {"measurement": "Discharge 1 point (Normal/Not an Issue): proportion of women", "setting": "Day 4", "result": 35, "unit": "%"}, {"measurement": "Discharge 2 points (Mildly Abnormal): number of women", "setting": "Day 4", "result": 22}, {"measurement": "Discharge 2 points (Mildly Abnormal): proportion of women", "setting": "Day 4", "result": 40, "unit": "%"}, {"measurement": "Discharge 3 points (Moderately Abnormal): number of women", "setting": "Day 4", "result": 8}, {"measurement": "Discharge 3 points (Moderately Abnormal): proportion of women", "setting": "Day 4", "result": 15, "unit": "%"}, {"measurement": "Discharge 4 points (Severely Abnormal): number of women", "setting": "Day 4", "result": 5}, {"measurement": "Discharge 4 points (Severely Abnormal): proportion of women", "setting": "Day 4", "result": 9, "unit": "%"}, {"measurement": "Discharge 5 points (Very Severely Abnormal): number of women", "setting": "Day 4", "result": 1}, {"measurement": "Discharge 5 points (Very Severely Abnormal): proportion of women", "setting": "Day 4", "result": 2, "unit": "%"}, {"measurement": "Odor 1 point (Normal/Not an Issue): number of women", "setting": "Day 4", "result": 27}, {"measurement": "Odor 1 point (Normal/Not an Issue): proportion of women", "setting": "Day 4", "result": 49, "unit": "%"}, {"measurement": "Odor 2 points (Mildly Abnormal): number of women", "setting": "Day 4", "result": 18}, {"measurement": "Odor 2 points (Mildly Abnormal): proportion of women", "setting": "Day 4", "result": 33, "unit": "%"}]}]}
